Test results: patent publication US6936266B2, “Desquamation/epidermal renewal of the skin and/or combating skin aging” (L'Oreal, priority 1998, dated 2005)

System: differentiated human keratinocytes
Test: in vitro screening of an active agent on desquamation (release of corneocytes, cellular detachment index by flow cytometry)
Type: cell-based
Settings: for % of activity relative to the control (cellular detachment index, difference between T60 and T0): compounds at 5 × 10^−5M, 60 minutes after addition, control = identical culture in the absence of compound
Procedure: This test of in vitro screening of an active agent on desquamation was carried out on differentiated human keratinocytes. The principle of the test was based on the fact that desquamation induces the release of corneocytes. The desquamating power of the product tested will be proportionately greater the larger the number of corneocytes released.
The test procedure was as follows: starting with human skin biopsies, the keratinocytes obtained by separation of the epidermis were dissociated by enzymatic action with trypsin and were cultured at a concentration of 2×10^5 cells/ml. Growth and differentiation of the keratinocytes were obtained by culturing for 10 to 20 days in a specific medium. Next, after removing the culture medium, the activity of the test product was evaluated. To do this, two samples were taken at T0 and T60, i.e., just before adding the product and 60 minutes after this addition. The samples thus taken were analyzed with a flow cytometer in order to count the corneocyte population. The flow cytometer made it possible to distinguish the corneocyte and keratinocyte populations by treatment with acridine orange, which is specific for cellular DNA.
The cellular detachment index was determined by the difference between T60 and T0.
The test was carried out with cinnamic acid at a concentration of 5×10^−5M.
The results are given as a % of activity relative to the control consisting of an identical culture in the absence of compound.

Row | SMILES | activity on the cellular detachment (cinnamic acid at 5×10^−5M) | % of activity relative to the control (cellular detachment index, difference between T60 and T0)
1 | O=C(O)C=Cc1ccccc1 [Cinnamic acid] | high | 59.2%
2 | CCCCCCCC(=O)c1ccc(O)c(C(=O)O)c1 [Reference, 2-hydroxy-5-octanoylbenzoic acid, reference compound] | – | 96.6%
